Patent publication US11254640B2, “N-substituted indoles and other heterocycles for treating brain disorders” (The Regents of the University of California, priority 2019, dated 2022)
Where two headings read alike, the source gives them in different places.

Tests used:
Type in all cases: cell-based
5HT2A sensor [1] = assay: 5HT2A sensor assay, antagonist mode (sLight1.3s HEK293T stable line); conditions: relative to 5-HT at 100 nM; for 5HT2A Antagonist mean @ 100 nM (%): 100 nM compound; for 5HT2A Antagonist mean @ 10 μM (%): 10 μM compound; for 5HT2A Antagonist mean @ 100 μM (%): 100 μM compound
Method: In some embodiments, the 5HT2A sensor assay is in an antagonist mode.
(§1) 5HT2A Sensor Assays. HEK293T (ATCC) 5HT2A sensor stable line (sLight1.3s) was generated via lentiviral transduction of HIV-EF1α-sLight1.3 and propagated from a single colony. Lentivirus was produced using 2nd generation lentiviral plasmids pHIV-EF1α-sLight1.3, pHCMV-G, and pCMV-deltaR8.2.
(§2) For the screening of the 41 compounds, sLight1.3s cells were plated in 96-well plates at a density of 40000 24-hours prior to imaging. On the day of imaging, compounds solubilized in DMSO were diluted from the 100 mM stock solution to working concentrations of 1 mM, 100 μM and 1 μM with a DMSO concentration of 1%. Immediately prior to imaging, cells growing in DMEM (Gibco) were washed 2× with HBSS (Gibco) and in agonist mode 180 μL of HBSS or in antagonist mode 160 μL of HBSS was added to each well after the final wash. For agonist mode, images were taken before and after the addition of the 20 μL compound working solution into the wells containing 180 μL HBSS. This produced final compound concentrations of 100 μM, 10 μM and 100 nM with a DMSO concentration of 0.1%. For antagonist mode, images were taken before and after addition of 20 μL of 900 nM 5-HT and again after 20 μL of the compound working solutions to produce final concentrations of 100 nM for 5HT and 100 μM, 10 μM and 100 nM for the compounds with a DMSO concentration of 0.1%. Each compound was tested in triplicates (3 wells) for each concentration (100 μM, 10 μM and 100 nM). Additionally, within each plate, 100 nM 5HT and 0.1% DMSO controls were also imaged.
(§3) Imaging was performed using the Leica DMi8 inverted microscope with a 40× objective using the FITC preset with an excitation of 460 nm and emission of 512-542 nm. For each well, the cellular membrane where the 5HT2A sensor is targeted was autofocused using the adaptive focus controls and 5 images from different regions within the well were taken with each image processed from a 2×2 binning.
(§4) For data processing, the membranes from each image was segmented and analyzed using a custom algorithm written in MATLAB producing a single raw fluorescence intensity value. For each well the 5 raw fluorescence intensity values generated from the 5 images were averaged and the change in fluorescence intensity (dFF) was calculated as: dFF=(Fsat−Fapo)/Fapo
(§5) For both agonist and antagonist modes, the fluorescence intensity values before compound addition in HBSS only were used as the Fapo values while the fluorescence intensity values after compound addition were used as the Fsat values.
(§6) For agonist mode, data are as percent activation relative to 5HT, where 0 is the average of the DMSO wells and 100 is the average of the 100 uM 5HT wells. For antagonist mode, the inactivation score was calculated as: Inactivation score=(dFFF(Compound+5HT)−dFF(5HT))/dFF(5HT)

5HT2A sensor [2] = assay: 5HT2A sensor assay, agonist mode (sLight1.3s HEK293T stable line); conditions: percent relative to 5-HT at 100 uM; for 5HT2A Agonist mean @ 100 nM (%): 100 nM compound; for 5HT2A Agonist mean @ 10 μM (%): 10 μM compound; for 5HT2A Agonist mean @ 100 μM (%): 100 μM compound
Method: In some embodiments, hallucinogenic potential of a compound of the present invention is determined in vitro. In some embodiments, hallucinogenic potential of a compound of the present invention is determined using a 5HT2A sensor assay. In some embodiments, the 5HT2A sensor assay is in an agonist mode or an antagonist mode. In some embodiments, the 5HT2A sensor assay is in an agonist mode.
as §1, §2, §3, §4, §5, §6

5HT2A = target: T1, 5HT2A (Homo sapiens, UniProt P28223); assay: Calcium flux assay (Calcium secondary messenger pathway); conditions: agonist mode
T1 construct: expressed in transfected cells
T1 sequence (P28223 whole entry): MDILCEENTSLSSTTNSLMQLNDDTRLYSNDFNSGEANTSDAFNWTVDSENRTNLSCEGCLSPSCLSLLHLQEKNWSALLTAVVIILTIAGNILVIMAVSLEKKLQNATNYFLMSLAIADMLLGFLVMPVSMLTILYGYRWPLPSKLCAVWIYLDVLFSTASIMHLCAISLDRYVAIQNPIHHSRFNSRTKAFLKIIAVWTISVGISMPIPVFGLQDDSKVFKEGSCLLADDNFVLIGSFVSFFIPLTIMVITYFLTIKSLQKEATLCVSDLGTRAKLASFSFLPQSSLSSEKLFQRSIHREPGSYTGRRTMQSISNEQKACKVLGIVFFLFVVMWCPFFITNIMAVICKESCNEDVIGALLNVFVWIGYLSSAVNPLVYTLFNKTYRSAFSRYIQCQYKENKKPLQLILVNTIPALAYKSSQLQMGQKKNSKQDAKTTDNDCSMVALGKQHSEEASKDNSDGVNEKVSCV
From the text: Calcium Flux Assay. Calcium Secondary Messenger Pathway. The Calcium No Wash^PLUS assay monitors the activation of a GPCR (e.g., 5HT2A) via Gq secondary messenger signaling in a live cell, non-imaging assay format. Calcium mobilization in PathHunter® cell lines or other cell lines stably expressing Gq-coupled GPCRs (e.g., 5HT2A) is monitored using a calcium-sensitive dye that is loaded into cells. GPCR (e.g., 5HT2A) activation by a compound results in the release of calcium from intracellular stores and an increase in dye fluorescence that is measured in real-time. In some embodiments, the ability of a compound of the present invention to modulate 5-HT2A function is determined using a calcium flux assay. In some embodiments, a compound of the present invention activates a calcium flux assay.
Calcium Secondary Messenger Pathway. Cell lines were expanded from freezer stocks according to standard procedures. Cells were seeded in a total volume of 20 μL into black-walled, clear-bottom, Poly-D-lysine coated 384-well microplates and incubated at 37° C. for the appropriate time prior to testing. Assays were performed in 1× Dye Loading Buffer consisting of 1× Dye, 1× Additive A and 2.5 mM Probenecid in HBSS/20 mM Hepes. Probenicid was prepared fresh. Cells were loaded with dye prior to testing. Media was aspirated from cells and replaced with 20 μL Dye Loading Buffer. Cells were incubated for 30-60 minutes at 37° C.
For agonist determination, cells were incubated with sample to induce response. After dye loading, cells were removed from the incubator and 10 μL HBSS/20 mM Hepes was added. 3× vehicle was included in the buffer when performing agonist dose curves to define the EC80 for subsequent antagonist assays. Cells were incubated for 30 minutes at room temperature in the dark to equilibrate plate temperature. Intermediate dilution of sample stocks was performed to generate 4× sample in assay buffer. Compound agonist activity was measured on a FLIPR Tetra (MDS). Calcium mobilization was monitored for 2 minutes and 10 μL 4× sample in HBSS/20 mM Hepes was added to the cells 5 seconds into the assay.
Compound activity was analyzed using CBIS data analysis suite (ChemInnovation, CA). For agonist mode assays, percentage activity is calculated using the following formula: % Activity=100%×(mean RFU of test sample−mean RFU of vehicle control)/(mean MAX RFU control ligand−mean RFU of vehicle control).

rat cortical neurons = assay: Neurite outgrowth assay; conditions: Cortical neurone, 1 hour treatment at DIV 4, analysed DIV 7, fold vs DMSO control
From the text: Neurite outgrowth assay. Changes in the pattern of neurite outgrowth have been implicated in neurodegenerative disorders as well as traumatic injuries. The discovery of new compounds that can positively affect neuritogenesis are important for developing new therapeutics for neurological diseases. Measurement of neurite outgrowth of rat cortical neurons using an automated image-based assay was used to determine the neuroplastic effects of the compounds of the present invention. In some embodiments, a compound of the present invention increases the pattern of neurite outgrowth. In some embodiments, a compound of the present invention increases neurite average length compared to a control. In some embodiments, a compound of the present invention increases neurite branch points compared to a control. In some embodiments, a compound of the present invention increases neurite average length and neurite branch points compared to a control.
Neurite Outgrowth Assay. Rat cortical neurons (20,000 cells/well) were freshly isolated from embryonic day 18 rats and cultured in Neurobasal Medium (+B27). The cultured cells were plated in 96 well-plates (avoiding external wells). At DIV 4, the neurons were treated with compound or control (10 μM) for 1 hour followed by complete washout of the compound. At DIV 7, the neurons were analyzed. The experiments were performed in triplicate. Neurite outgrowth was measured analyzing the following parameters: Number of Cell Bodies, total neurite length (pixels), Root Count, Segments, Extremities Count and node points. Changes in the pattern of neurite outgrowth of the neurons were analyzed by immunocytochemistry against β-III-tubulin. Pictures were acquired by the CellInsight CX7 from Thermo Fisher and analyzed using its software. Results generated in the equipment were maximum neurite length, extremity count, root count, dendrite branch points, and total neurite length. The results were compared to DMSO control, representing the fold-change in neuronal outgrowth.

[3] = read-out: Neurite Average Length @ 10 μM
[4] = read-out: Neurite Branch Points: @ 10 μM

SMILES	5HT2A Antagonist mean @ 100 nM (%) (5HT2A sensor [1])	5HT2A Antagonist mean @ 10 μM (%) (5HT2A sensor [1])	5HT2A Antagonist mean @ 100 μM (%) (5HT2A sensor [1])	5HT2A Agonist mean @ 100 nM (%) (5HT2A sensor [2])	5HT2A Agonist mean @ 10 μM (%) (5HT2A sensor [2])	5HT2A Agonist mean @ 100 μM (%) (5HT2A sensor [2])	EC50 (5HT2A)	fold induction at 10 µM (rat cortical neurons; [3])	fold induction at 10 µM (rat cortical neurons; [4])
C[C@H](Cn1ccc2cc(F)cc(F)c21)N(C)C [Example 69, (R)-1-(5,7-difluoro-1H-indol-1-yl)-N,N-dimethylpropan-2-amine]	B (inhibits 5HT response by 75% to 100%)	B (inhibits 5HT response by 75% to 100%)	B (inhibits 5HT response by 75% to 100%)	B (does not activate 5HT2A sensor assay in agonist mode)	B (does not activate 5HT2A sensor assay in agonist mode)	A (activates 5HT2A sensor assay in agonist mode)	> 10 µM	1.5 to 3	> 3
COc1cc2ccn(C[C@@H](C)N(C)C)c2cc1OC [Example 62, (R)-1-(5,6-dimethoxy-1H-indol-1-yl)-N,N-dimethylpropan-2-amine]	B (inhibits 5HT response by 75% to 100%)	B (inhibits 5HT response by 75% to 100%)	A (inhibits 5HT response by >100%)	B (does not activate 5HT2A sensor assay in agonist mode)	B (does not activate 5HT2A sensor assay in agonist mode)	A (activates 5HT2A sensor assay in agonist mode)	> 10 µM	1.5 to 3	1.5 to 3
COc1ccc2c(ccn2CCN2CCCCC2)c1 [Example 45, 5-methoxy-1-(2-(piperidin-1-yl)ethyl)-1H-indole]	A (inhibits 5HT response by >100%)	B (inhibits 5HT response by 75% to 100%)	A (inhibits 5HT response by >100%)	B (does not activate 5HT2A sensor assay in agonist mode)	B (does not activate 5HT2A sensor assay in agonist mode)	B (does not activate 5HT2A sensor assay in agonist mode)	> 10 µM	1.5 to 3	1.5 to 3
COc1cc(OC)c2c(ccn2C[C@@H](C)N(C)C)c1 [Example 63, (R)-1-(5,7-dimethoxy-1H-indol-1-yl)-N,N-dimethylpropan-2-amine]	B (inhibits 5HT response by 75% to 100%)	B (inhibits 5HT response by 75% to 100%)	A (inhibits 5HT response by >100%)	B (does not activate 5HT2A sensor assay in agonist mode)	B (does not activate 5HT2A sensor assay in agonist mode)	B (does not activate 5HT2A sensor assay in agonist mode)	> 10 µM	1.5 to 3	1.5 to 3
FC(F)(F)Oc1ccc2c(ccn2CCN2CCCCC2)c1 [Example 51, 1-(2-(piperidin-1-yl)ethyl)-5-(trifluoromethoxy)-1H-indole]	A (inhibits 5HT response by >100%)	A (inhibits 5HT response by >100%)	A (inhibits 5HT response by >100%)	B (does not activate 5HT2A sensor assay in agonist mode)	B (does not activate 5HT2A sensor assay in agonist mode)	B (does not activate 5HT2A sensor assay in agonist mode)	> 10 µM	1.5 to 3	1.5 to 3
Cc1nc2ccccc2n1CCN(C)C [Example 58, N,N-dimethyl-2-(2-methyl-1H-benzo[d]imidazol-1-yl)ethan-1-amine]	A (inhibits 5HT response by >100%)	A (inhibits 5HT response by >100%)	A (inhibits 5HT response by >100%)	B (does not activate 5HT2A sensor assay in agonist mode)	B (does not activate 5HT2A sensor assay in agonist mode)	A (activates 5HT2A sensor assay in agonist mode)	> 10 µM	1.5 to 3	1.5 to 3
CN(C)CCn1cnc2ccccc21 [Example 57, 2-(1H-benzo[d]imidazol-1-yl)-N,N-dimethylethan-1-amine]	B (inhibits 5HT response by 75% to 100%)	A (inhibits 5HT response by >100%)	A (inhibits 5HT response by >100%)	B (does not activate 5HT2A sensor assay in agonist mode)	B (does not activate 5HT2A sensor assay in agonist mode)	B (does not activate 5HT2A sensor assay in agonist mode)	> 10 µM	1.5 to 3	1.5 to 3
